Data reported in US20250049033A1, “PESTICIDALLY ACTIVE PYRIDAZINONE COMPOUNDS” (SYNGENTA CROP PROTECTION AG, priority 2021, published 2025).

Columns and labels:
Format in all cases: in vivo
Plutella xylostella = assay: Activity against Plutella xylostella (diamond back moth), artificial diet, eggs; settings: 192 h, application rate 200 ppm, 8 days after infestation, vs untreated, read-out: control in at least one of the two categories (mortality or growth inhibition)
Method: Example B7: Activity Against Plutella xylostella (Diamond Back Moth)
24-well microtiter plates with artificial diet were treated with aqueous test solutions prepared from 10′000 ppm DMSO stock solutions by pipetting. After drying, Plutella eggs were pipetted through a plastic stencil onto a gel blotting paper and the plate was closed with it. The samples were assessed for mortality and growth inhibition in comparison to untreated samples 8 days after infestation. The following compounds gave an effect of at least 80% control in at least one of the two categories (mortality or growth inhibition) at an application rate of 200 ppm: P1, P2, P3, P4, P6, P7, P8, P9, P10, P11, P12, P13, P14, P15, P16, P17, P18, P19, P20, P21, P22, P23, P24, P25, P26, P27.

Spodoptera littoralis = assay: Activity against Spodoptera littoralis (Egyptian cotton leaf worm), cotton leaf discs, L1 larvae; settings: foliar, 72 h, application rate 200 ppm, 3 days after infestation, vs untreated, read-out: control in at least one of the three categories (mortality, anti-feedant effect, or growth inhibition)
Method: Example B8: Activity Against Spodoptera littoralis (Egyptian Cotton Leaf Worm)
Cotton leaf discs were placed onto agar in 24-well microtiter plates and sprayed with aqueous test solutions prepared from 10′000 ppm DMSO stock solutions. After drying the leaf discs were infested with five L1 larvae. The samples were assessed for mortality, anti-feeding effect, and growth inhibition in comparison to untreated samples 3 days after infestation. Control of Spodoptera littoralis by a test sample is given when at least one of the categories mortality, anti-feedant effect, and growth inhibition is higher than the untreated sample.

Chilo suppressalis = assay: Activity against Chilo suppressalis (striped rice stemborer), artificial diet, L2 larvae; settings: 144 h, application rate 200 ppm, 6 days after infestation, vs untreated, read-out: control in at least one of the three categories (mortality, anti-feedant effect, or growth inhibition)
Method: Example B1: Activity Against Chilo suppressalis (Striped Rice Stemborer)
24-well microtiter plates with artificial diet were treated with aqueous test solutions prepared from 10′000 ppm DMSO stock solutions by pipetting. After drying, the plates were infested with L2 larvae (6-8 per well). The samples were assessed for mortality, anti-feeding effect, and growth inhibition in comparison to untreated samples 6 days after infestation. Control of Chilo suppressalis by a test sample is given when at least one of the categories mortality, anti-feedant effect, and growth inhibition is higher than the untreated sample.

Euschistus heros = assay: Activity against Euschistus heros (neotropical brown stink bug), soybean leaves, N2 nymphs; settings: 120 h, application rate 200 ppm, 5 days after infestation, vs untreated, read-out: effect in at least one of the two categories (mortality or growth inhibition)
Method: Example B3: Activity Against Euschistus heros (Neotropical Brown Stink Bug)
Soybean leaves on agar in 24-well microtiter plates were sprayed with aqueous test solutions prepared from 10′000 ppm DMSO stock solutions. After drying the leaves were infested with N2 nymphs. The samples were assessed for mortality and growth inhibition in comparison to untreated samples 5 days after infestation.

Myzus persicae = assay: Activity against Myzus persicae (green peach aphid), intrinsic activity; settings: 120 h, test rate 12 ppm, 5 days after infestation, sucrose solution through Parafilm
Text: Example B6: Activity Against Myzus persicae (Green Peach Aphid). Intrinsic Activity
Test compounds prepared from 10′000 ppm DMSO stock solutions were applied by pipette into 24-well microtiter plates and mixed with sucrose solution. The plates were closed with a stretched Parafilm. A plastic stencil with 24 holes was placed onto the plate and infested pea seedlings were placed directly on the Parafilm. The infested plate was closed with a gel blotting paper and another plastic stencil and then turned upside down. The samples were assessed for mortality 5 days after infestation.

Diabrotica balteata = assay: Activity against Diabrotica balteata (corn root worm), maize sprouts, L2 larvae; settings: 96 h, application rate 200 ppm, 4 days after infestation, vs untreated, read-out: control in at least one of the two categories (mortality or growth inhibition)
Method: Example B2: Activity Against Diabrotica balteata (Corn Root Worm)
Maize sprouts placed onto an agar layer in 24-well microtiter plates were treated with aqueous test solutions prepared from 10′000 ppm DMSO stock solutions by spraying. After drying, the plates were infested with L2 larvae (6 to 10 per well). The samples were assessed for mortality and growth inhibition in comparison to untreated samples 4 days after infestation.

C[C@H](Nc1ncnc2c(Br)cc(Br)cc12)c1ncnn1-c1ccc(=O)n(C)n1 [P18, 6-[5-[(1S)-1-[(6,8-dibromoquinazolin-4-yl)amino]ethyl]-1,2,4-triazol-1-yl]-2-methyl-pyridazin-3-one]
≥ 80%: percent control (mortality or growth inhibition) at 200 ppm (Plutella xylostella)

C[C@H](Nc1ncnc2c(I)cc(Cl)cc12)c1ncnn1-c1ccc(=O)n(C)n1 [P11, 6-[5-[(1S)-1-[(6-chloro-8-iodo-quinazolin-4-yl)-amino]ethyl]-1,2,4-triazol-1-yl]-2-methyl-pyridazin-3-one]
≥ 80%: percent control (mortality or growth inhibition) at 200 ppm (Plutella xylostella) | percent control (mortality, anti-feedant effect or growth inhibition) at 200 ppm (Spodoptera littoralis) | percent control (mortality, anti-feedant effect or growth inhibition) at 200 ppm (Chilo suppressalis) | percent effect (mortality or growth inhibition) at 200 ppm (Euschistus heros) | mortality at 12 ppm (Myzus persicae)

C[C@@H](c1ncnn1-c1ccc(=O)n(C)n1)N(C)c1ncnc2c(Cl)cc(C(F)(F)F)cc12 [P23, 6-[5-[(1S)-1-[[8-chloro-6-(trifluoro-methyl)quinazolin-4-yl]-methyl-amino]ethyl]-1,2,4-triazol-1-yl]-2-methyl-pyr-idazin-3-one]
≥ 80%: percent control (mortality or growth inhibition) at 200 ppm (Plutella xylostella) | percent control (mortality, anti-feedant effect or growth inhibition) at 200 ppm (Spodoptera littoralis) | percent control (mortality, anti-feedant effect or growth inhibition) at 200 ppm (Chilo suppressalis) | percent control (mortality or growth inhibition) at 200 ppm (Diabrotica balteata) | percent effect (mortality or growth inhibition) at 200 ppm (Euschistus heros) | mortality at 12 ppm (Myzus persicae)

C[C@@H](c1ncnn1C1=NN(C)C(=O)CC1)N(C)c1ncnc2c(I)cc(Cl)cc12 [P26, 6-[5-[(1S)-1-[(6-chloro-8-iodo-quinazolin-4-yl)-methyl-amino]ethyl]-1,2,4-triazol-1-yl]-2-methyl-4,5-dihydropyridazin-3-one]
≥ 80%: percent control (mortality or growth inhibition) at 200 ppm (Plutella xylostella) | percent control (mortality, anti-feedant effect or growth inhibition) at 200 ppm (Spodoptera littoralis) | percent control (mortality, anti-feedant effect or growth inhibition) at 200 ppm (Chilo suppressalis) | percent control (mortality or growth inhibition) at 200 ppm (Diabrotica balteata) | percent effect (mortality or growth inhibition) at 200 ppm (Euschistus heros) | mortality at 12 ppm (Myzus persicae)

C[C@H](Nc1ncnc2c(I)cc(Cl)cc12)c1ncnn1C1=NN(C)C(=O)CC1 [P25, 6-[5-[(1S)-1-[(6-chloro-8-iodo-quinazolin-4-yl)amino]ethyl]-1,2,4-triazol-1-yl]-2-methyl-4,5-dihydropyridazin-3-one]
≥ 80%: percent control (mortality or growth inhibition) at 200 ppm (Plutella xylostella) | percent control (mortality, anti-feedant effect or growth inhibition) at 200 ppm (Spodoptera littoralis) | percent control (mortality, anti-feedant effect or growth inhibition) at 200 ppm (Chilo suppressalis) | percent control (mortality or growth inhibition) at 200 ppm (Diabrotica balteata) | percent effect (mortality or growth inhibition) at 200 ppm (Euschistus heros) | mortality at 12 ppm (Myzus persicae)

C[C@H](Nc1ncnc2c(Cl)cc(C(F)(F)F)cc12)c1ncnn1-c1ccc(=O)n(C)n1 [P16, 6-[5-[(1S)-1-[[8-chloro-6-(trifluoro-methyl)quinazolin-4-yl]amino]ethyl]-1,2,4-triazol-1-yl]-2-methyl-pyrid-azin-3-one]
≥ 80%: percent control (mortality or growth inhibition) at 200 ppm (Plutella xylostella) | percent control (mortality, anti-feedant effect or growth inhibition) at 200 ppm (Spodoptera littoralis) | percent control (mortality, anti-feedant effect or growth inhibition) at 200 ppm (Chilo suppressalis) | percent control (mortality or growth inhibition) at 200 ppm (Diabrotica balteata) | percent effect (mortality or growth inhibition) at 200 ppm (Euschistus heros) | mortality at 12 ppm (Myzus persicae)

C[C@H](Nc1nc(=O)n(C)c2c(Cl)cc(C(F)(F)F)cc12)c1ncnn1-c1ccc(=O)n(C)n1 [P1, 8-chloro-1-methyl-4-[[(1S)-1-[2-(1-methyl-6-oxo-pyridazin-3-yl)-1,2,4-triazol-3-yl]ethyl]amino]-6-(trifluoromethyl)quinazolin-2-one]
≥ 80%: percent control (mortality or growth inhibition) at 200 ppm (Plutella xylostella) | percent control (mortality, anti-feedant effect or growth inhibition) at 200 ppm (Chilo suppressalis) | percent effect (mortality or growth inhibition) at 200 ppm (Euschistus heros)
